Measured values taken from patent US20250134938A1 (priority 2023, published 2025).
Where “and” joins values, the source holds several entries; their conditions need not be identical. Equal entries are not always repeated.

How the values were obtained:
[1] = DPPH radical scavenging assay; format: biochemical; settings: culture supernatant; relative to 2 mM ascorbic acid
Experimental: Louis, MO, USA) radical scavenging assay. […] 0.1 mM DPPH diluted in methanol was used in the experiment. […] The reaction mixture was centrifuged at 13,000 rpm for 1 minute. 200 μL of the supernatant was dispensed into a 96-well plate, and absorbance was measured at 517 nm using a microplate reader (Epoch microplate reader, Biotek Instruments, Inc., Winooski, VT, USA). DPPH radical scavenging activity was calculated using the following equation and expressed as a relative value to the DPPH radical scavenging activity of the positive control group, 2 mM ascorbic acid. DPPH Radical Scavenging Activity (%)=(1-(Absorbance of Sample/Absorbance of Control Group))×100

RAW 264.7 cells = test: NO production by RAW 264.7 macrophages (Griess reagent); format: cell-based, mouse; settings: MOI 100, 24 hours, LPS 1 μg/mL as 100%
Experimental: RAW 264.7 cells (KCLB40071), which are mouse macrophages, were purchased from the Korean Cell Line Bank. They were inoculated to DMEM (high-glucose Dulbecco's modified Eagle's medium; GIBCO, Grand Island, NY, USA) containing 10% (v/v) fetal bovine serum (FBS, GIBCO) and 1% (v/v) penicillin-streptomycin (P/S, GIBCO), cultured at 37° C. in a 5% CO2 incubator (Thermo Fisher Scientific, Waltham, MA, USA), and then detached using a cell scraper (SPL, Pocheon, Korea).
Cell precipitates were harvested by centrifugation at 10,000 rpm for 5 minutes at 4° C. for 5 times. Afterward, they were washed three times with DPBS (Dulbecco's phosphate buffered saline; Welgene, Gyeongsan, Korea). […]
NO production by RAW 264.7 macrophages was measured using a Griess reagent. […] 100 µL of the culture was added to a 96-well plate and, after adding 100 μL of a Griess reagent A and a Griess reagent B of equal amounts, reaction was conducted for 15 minutes in the dark, and absorbance was measured at 540 nm with a microplate reader. A standard curve for NO production versus absorbance was constructed using a sample of 250 µM NaNO2 diluted 2-fold with DMEM to […], and NO concentration was calculated from the measured absorbance value.

[2] = Acid resistance in artificial gastric fluid; format: physicochemical; settings: pH 2.5, 2 h
Experimental: Artificial gastric fluid was prepared by adjusting the pH of 100 mM glycine-HCl buffer to 2.5. After inoculating Lactobacillus seed culture incubated at 37° C. for 20 hours to 1% (v/v) in 4 mL of MRS broth, the culture was incubated at 37° C. for 16 hours. The culture was centrifuged at 13000 rpm for 1 minute and the obtained cell precipitate was washed twice with 0.88% (w/v) NaCl (sterile physiological saline). The washed pellet was resuspended in 4 mL of the artificial gastric fluid and incubated at 37° C. After 2 hours of incubation, 1 mL of the sample was taken and centrifuged at 13000 rpm for 1 minute to obtain a cell pellet, which was washed three times with sterile physiological saline and resuspended in 1 mL of sterile physiological saline. After decimally diluting with 9 mL saline, followed by smearing on LAB Petrifilm, the sample was incubated at 37° C. for 1-2 days and the live bacteria were counted (Table 12). Acid resistance was calculated using the following equation. The sample at 0 hour of incubation was used as a control group. [formula]

[3] = Bile resistance in artificial bile; format: physicochemical; settings: 0.3% oxgall, 37° C., 24 hours
Experimental: Artificial bile was prepared by adding 3% of a 10% Bacto oxgall (Becton, Dickinson and Company) solution filtered through a 0.22-μm membrane to sterilized MRS broth to give a final oxgall concentration of 0.3%. […] 1 mL of the sample was taken, diluted decimally with 9 mL of saline, smeared on LAB Petrifilm, and incubated at 37° C. for 1-2 days to determine the number of live bacteria (Table 13). Bile resistance was calculated using the following equation. A sample incubated in MRS broth without addition of oxgall was used as a control group.

[4] = Pancreatic juice resistance in artificial pancreatic juice; format: physicochemical; settings: 0.5% pancreatin, listed as LGG
Experimental: Artificial pancreatic juice was prepared by adding 5% of a 10% pancreatin solution (0.85% NaCl, pH 8.0) filtered through a 0.22-μm membrane to sterilized MRS broth to a final pancreatin concentration of 0.5%. A Lactobacillus seed culture obtained by incubating at 37° C. for 20 hours after inoculation to MRS broth was added to 5 mL of the artificial pancreatic juice to 1% (v/v) and incubated at 37° C. […] Pancreatic juice resistance was calculated using the following equation. A sample at 0 hour of incubation was used as a control group. [formula]

Caco-2 cells = test: Ability of intestinal adherence; format: cell-based, human; settings: MOI 200, 2 hours, listed as LGG
Experimental: Caco-2 cells (human colorectal adenocarcinoma cells, HTB-37™), which are enterocyte-like cells, purchased from the ATCC were cultured in DMEM medium supplemented with 10% (v/v) FBS (Cornig) and 1% (v/v) P/S at 37° C. under 5% CO2 in an incubator (Thermo Fisher Scientific, Waltham, MA, USA). 0.25% trypsin-EDTA (GIBCO) was used to detach the cells from a culture flask.
500 μL of the Caco-2 cells were seeded in a 24-well plate at a density of 5×10^5 cells/well and cultured for 3 days at 37° C. and 5% CO2. The 24-well plate in which the Caco-2 cells were cultured was washed twice with 500 μL of DMEM medium supplemented with 10% FBS. After treating with Lactobacilli at a concentration of MOI 200, the cells were incubated at 37° C. and 5% CO2 for 2 hours. After the incubation, each well was washed four times with 500 μL of DPBS to remove the unattached strain. 200 μL of 0.25% trypsin-EDTA was dispensed into each well and incubated for 5 minutes at 37° C. and 5% CO2. The detached Caco-2 cells and strain were collected in a 1.5-mL tube together with […] of DPBS and centrifuged at 13,000 rpm for 1 minute to harvest a cell pellet, which was washed twice with 1 mL of DPBS. […] After decimal dilution, followed by smearing on Petrifilm and incubation at 37° C. for 24 hours, the number of live bacteria was determined. The ability of intestinal adhesion was calculated by the following equation.

[5] = Number of live bacteria and pH of coconut fermented milk; settings: coconut milk fermented at 37° C. for 16 hours; listed as LGG
Experimental: Then, cells were harvested by centrifuging the Lactobacillus culture (13,000 rpm, 1 minute, 4° C.). The cell precipitate was washed 3 times with 0.85% (w/v) NaCl (sterile physiological saline) and then suspended in 1 mL of sterile physiological saline (The concentration of the suspension was 1×10^8 CFU/mL). (2) 1% (v/v) of the suspended strain was inoculated to 3 mL of coconut milk with a solid content of 8 wt %, and coconut fermented milk was prepared by fermenting at 37° C. for 16 hours. After measuring the pH of the coconut fermented milk prepared in Example 11-1, it was decimally diluted with sterile physiological saline and the number of live bacteria was counted on a […] lactic acid bacteria count plate (3M Company, St. Paul, MN, USA) after culturing for 1 to 2 days.

Question: What does the source list for Lactobacillus rhamnosus GG?
Answer: DPPH radical scavenging activity (%) [1]: 97.2%; NO production (% of positive control group) (RAW 264.7 cells): 18.5 ± 3.2%; NO production (% of positive control group) (RAW 264.7 cells; listed as LGG): 18.47%; Acid resistance (%) Average [2]: 83.3%; Acid resistance (%) Average ([2]; listed as LGG): 83.3 ± 2.3%; Acid resistance (%) ([2]; single replicate, listed as LGG): 81.2% and 85.8% and 83.0%; Bile resistance (%) [3]: 63.6 ± 9.3%; live bacteria 0 h (CFU/mL) ([4]; 0 h (control)): 1.30 × 10^9 CFU/mL and 1.73 × 10^9 CFU/mL and 1.12 × 10^9 CFU/mL; live bacteria 2 h (CFU/mL) ([4]; 37° C., 2 h): 3.14 × 10^9 CFU/mL and 3.87 × 10^9 CFU/mL and 2.74 × 10^9 CFU/mL; Pancreatic juice resistance (%) Average ([4]; average): 104.1% and 104.1 ± 0.3%; Pancreatic juice resistance (%) ([4]; single replicate): 104.2% and 103.8% and 104.3%; Ability of intestinal adherence (%) (Caco-2 cells): 75.5% and 75.5 ± 9.3%; pH [5]: 3.57 and 3.57 ± 0.06
